2 molecules from patent US7250410B2, “Cyclic nucleotide phosphodiesterase inhibitors, preparation and uses thereof” (Via Pharmaceuticals, Inc., priority 2001, dated 2007) can be followed below.

Structures are written as SMILES. “And” between values parts separate entries of the source, which are not always exact repeats. Equal values may be shown once.

Assay [1] deals with T1, PDE3 (Bos taurus, UniProt A0A3Q1M1E8).
T1 sequence (A0A3Q1M1E8 1-1126): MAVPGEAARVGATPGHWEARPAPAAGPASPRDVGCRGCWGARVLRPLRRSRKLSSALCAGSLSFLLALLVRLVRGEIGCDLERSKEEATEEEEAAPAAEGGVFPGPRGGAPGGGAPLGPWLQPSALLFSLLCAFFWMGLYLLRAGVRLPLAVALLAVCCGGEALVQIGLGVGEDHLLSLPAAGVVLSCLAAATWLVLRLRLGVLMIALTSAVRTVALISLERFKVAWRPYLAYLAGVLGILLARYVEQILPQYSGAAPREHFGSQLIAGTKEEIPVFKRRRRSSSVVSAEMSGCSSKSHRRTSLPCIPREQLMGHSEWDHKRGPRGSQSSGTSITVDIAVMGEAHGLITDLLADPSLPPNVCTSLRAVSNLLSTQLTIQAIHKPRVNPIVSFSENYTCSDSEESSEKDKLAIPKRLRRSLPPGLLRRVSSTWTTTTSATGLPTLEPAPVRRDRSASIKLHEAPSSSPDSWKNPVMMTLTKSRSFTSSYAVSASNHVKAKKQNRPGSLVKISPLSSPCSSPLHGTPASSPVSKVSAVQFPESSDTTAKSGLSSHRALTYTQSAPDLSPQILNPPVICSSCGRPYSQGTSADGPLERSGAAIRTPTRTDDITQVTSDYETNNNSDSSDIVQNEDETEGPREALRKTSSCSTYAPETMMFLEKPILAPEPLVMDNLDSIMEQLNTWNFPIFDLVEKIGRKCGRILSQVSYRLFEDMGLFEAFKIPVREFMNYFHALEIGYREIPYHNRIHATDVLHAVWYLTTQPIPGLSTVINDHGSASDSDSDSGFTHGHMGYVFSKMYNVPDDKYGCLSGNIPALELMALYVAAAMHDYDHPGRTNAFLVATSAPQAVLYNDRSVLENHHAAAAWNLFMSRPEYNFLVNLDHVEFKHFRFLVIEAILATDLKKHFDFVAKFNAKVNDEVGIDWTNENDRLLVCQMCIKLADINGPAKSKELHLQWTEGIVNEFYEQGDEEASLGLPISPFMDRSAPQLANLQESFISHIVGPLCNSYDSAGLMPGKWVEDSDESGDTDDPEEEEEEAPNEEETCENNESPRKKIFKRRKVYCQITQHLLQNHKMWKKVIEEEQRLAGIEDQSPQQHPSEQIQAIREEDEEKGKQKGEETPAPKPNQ
Put plainly: Selectivity: inhibition of PDE3, radioenzymatic phosphodiesterase assay. The assay is classed as biochemical, bovine. The conditions noted are these: read-out: PDE3 percentage inhibition at 10 μM. As for the experimental part: A 3 g segment of bovine aortic media cut into pieces with scissors was homogenized with an ultra-turrax then a potter glass/glass homogenizer in 7 volumes by weight of buffer A containing a protease inhibitor cocktail (20 mM Tris-HCl, 0.25 M saccharose, 2 mM magnesium acetate, 1 mM dithiothreitol, 5 mM EGTA, 2000 U/ml aprotinin, 10 mg/l leupeptin and 10 mg/l soya trypsic inhibitor). The homogenizate was centrifuged at 105,000 g for 1 hour. The supernatant was loaded on a DEAE-Sephacel column (15×1.6 cm) pre-equilibrated with buffer B (buffer A without the saccharose, EGTA and protease inhibitors). The column was washed until there was no detectable absorption at 280 nm, then eluted with a linear gradient of NaCl (0–0.5 M) in buffer B. 3-ml fractions were collected and enzyme activity was determined under the conditions described hereinafter to localize the different enzymes PDE1, PDE3, PDE4 and PDE5, which were aliquoted and frozen at −80° C. (Lugnier et al., Biochem. Phamacol., 35 (1986) 1746–1751). PDE2 was prepared from bovine endothelial cells by the same methods (Lugnier and Schini, Biochem. Pharmacol. 1990, 39; 75–84).
Cyclic nucleotide phosphodiesterase activity was determined by a radioenzymatic method using tritium-labelled cyclic GMP or AMP (1 μM) as substrate (Lugnier et al., 1986). ^3H-labelled adenosine or guanosine monophosphate formed by hydrolysis of the radiolabelled cyclic nucleotide was then converted to ^3H-labelled adenosine or guanosine in a second reaction with […] in excess. The nucleoside formed was separated from the nucleotides by anion exchange chromatography. Nucleoside radioactivity was determined by liquid scintillation counting. Enzymatic incubations were carried out under conditions allowing no more than 15% hydrolysis of the substrate; each point was performed in duplicate.
The activity of the compounds was evaluated on other phosphodiesterase isoforms, particularly basal state or calmodulin-activated PDE1 from vascular smooth muscle, basal state or cyclic GMP-activated PDE2 from vascular endothelial cells, PDE3 and PDE5 from vascular smooth muscle.
The results obtained are presented in Table 4 hereinafter and are expressed as the percentage inhibition of enzymatic activity produced by […] of the tested compound.

The target in assay [2] is PDE4. Kind of assay: Inhibition of PDE4, radioenzymatic phosphodiesterase assay. The assay is classed as biochemical, bovine. An outline of the steps:
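PDE4 partially purified from bovine aortic media by 105,000 g centrifugation and anion-exchange chromatography with an NaCl gradient. Activity measured radioenzymatically: product nucleoside separated from nucleotides by anion exchange and counted by liquid scintillation.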

In general, inhibition refers to the change of the read-out against control, counted positive when it falls. As a reminder, the IC50 is the concentration that inhibits the measured activity by half. `CCOc1cc2c(cc1OC)C(c1ccccc1)=NCC(=O)N2C` [IIda, 8-ethoxy-7-methoxy-1-methyl-5-phenyl-1,3-dihydro-2H-1,4-benzodiazepin-2-one]: the inhibition at 10 µM in assay [1] is 47%. The concentration for half-maximal inhibition (IC50) is 550 nM and 430 nM in assay [2] (Table 3, formula (II), 1 μM cyclic AMP); 500 nM in assay [2] (Table 4 Selectivity).

Take `CCOc1cc2c(cc1OCC)C(c1ccccc1)=NCC(=O)N2` [XXIIag, 7,8-diethoxy-5-phenyl-1,3-dihydro-2H-1,4-benzodiazepin-2-one]: the inhibition at 10 µM in assay [1] was 22%. The IC50 came to 950 nM in assay [2] (Table 2, formula (XXII), 1 μM cyclic AMP) and 950 nM in assay [2] (Table 4 Selectivity).
